30 compounds from patent publication US7517889B2, “2,6-substituted-4-monosubstitutedamino-pyrimidine as prostaglandin D2 receptor antagonists” (Aventis Pharmaceuticals, Inc., priority 2004, dated 2009) can be followed below.

The assay addresses T1, DP receptor (Homo sapiens, UniProt Q13258).
T1 construct: the human cell line LS174T, which expresses the endogenous DP receptor; endogenous in cells; host or cells: LS174T human cell line
T1 sequence (Q13258 1-359): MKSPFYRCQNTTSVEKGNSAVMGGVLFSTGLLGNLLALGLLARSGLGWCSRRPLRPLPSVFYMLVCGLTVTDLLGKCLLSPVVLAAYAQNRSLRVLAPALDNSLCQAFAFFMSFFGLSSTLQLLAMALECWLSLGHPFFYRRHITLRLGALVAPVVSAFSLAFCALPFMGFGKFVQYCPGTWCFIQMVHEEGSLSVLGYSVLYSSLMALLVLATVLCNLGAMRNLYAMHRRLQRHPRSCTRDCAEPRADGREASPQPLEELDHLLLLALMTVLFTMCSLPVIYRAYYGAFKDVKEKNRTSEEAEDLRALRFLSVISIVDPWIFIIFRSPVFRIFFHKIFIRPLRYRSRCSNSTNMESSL
Kind of assay: SPA cAMP assay in human LS174 T cells (human DP functional assay). It is filed as cell-based. To be noted: inhibition of PGD2 (15 nM final) stimulated cAMP, LS174T cells expressing endogenous DP receptor. An outline of the steps: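 LS174T cells with endogenous DP receptor, 45,000/well seeded overnight, exposed to compounds at 11 points for 15 min at 37 °C in buffer containing IBMX, with PGD2 stimulation.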
A general note: Cyclic AMP is a second messenger, typically raised through Gs and lowered through Gi signalling.

Where a name gives a salt, the structure may show the parent alone.

The term IC50 denotes the point on the concentration scale where inhibition reaches its midpoint. On to `COc1nc(NCCc2ccc(Cl)cc2Cl)cc(-c2cccc(C(C)C(=O)O)c2)n1` (stereo not drawn) [Example 49(a), 2-(3-{6-[2-(2,4-Dichloro-phenyl)-ethylamino]-2-methoxy-pyrimidin-4-yl}-phenyl)-propionic acid hydrochloride], for which the IC50 is 1 nM.

`CCOC(=O)OC(C)OC(=O)C(C)(C)c1cccc(-c2cc(NCCc3ccc(Cl)cc3Cl)nc(OC)n2)c1` (stereo not drawn) [Example 50, 2-(3-{6-[2-(2,4-Dichloro-phenyl)-ethylamino]-2-methoxy-pyrimidin-4-yl}-phenyl)-2-methyl-propionic acid 1-ethoxycarbonyloxy-ethyl ester hydrochloride] gave an IC50 of 4 nM.

`COc1nc(NCCc2ccc(C(F)(F)F)cc2F)cc(-c2ccc3[nH]cc(CC(=O)O)c3c2)n1` [Example 52, (5-{6-[2-(2-Fluoro-4-trifluoromethyl-phenyl)-ethylamino]-2-methoxy-pyrimidin-4-yl}-1H-indol-3-yl)-acetic acid]: the IC50 came out at 0.4 nM.

The compound `COc1ccc(CCNc2cc(-c3ccc4cn[nH]c4c3)nc(OC)n2)cc1` [Example 53(b), [6-(1H-Indazol-6-yl)-2-methoxy-pyrimidin-4-yl]-[2-(4-methoxy-phenyl)-ethyl]-amine] displayed an IC50 of 0.95 nM.

`COc1nc(NCCc2c(F)cccc2Cl)cc(-c2cccc(COCC(=O)O)c2)n1` [Example 56, (3-{6-[2-(2-Chloro-6-fluoro-phenyl)-ethylamino]-2-methoxy-pyrimidin-4-yl}-benzyloxy)-acetic acid] had an IC50 of 0.6 nM.

`COc1nc(NCCc2ccc(Cl)cc2Cl)cc(-c2cccc(C(=O)NCC(=O)O)c2)n1` [Example 59, (3-{6-[2-(2,4-Dichloro-phenyl)-ethylamino]-2-methoxy-pyrimidin-4-yl}-benzoylamino)-acetic acid] registered an IC50 of 0.8 nM.

`CCNC(=O)Oc1cccc(-c2cc(NCCc3ccc(Cl)cc3Cl)nc(OC)n2)c1` [Example 60, Ethyl-carbamic acid 3-{6-[2-(2,4-dichloro-phenyl)-ethylamino]-2-methoxy-pyrimidin-4-yl}-phenyl ester]: half-maximal inhibition (IC50) required 0.5 nM.

`CNC(=O)c1ccc(-c2cc(NCCc3ccc(OC)cc3)nc(OC)n2)s1` [Example 62, 5-{2-Methoxy-6-[2-(4-methoxy-phenyl)-ethylamino]-pyrimidin-4-yl}-thiophene-2-carboxylic acid methylamide trifluoroacetate] yielded an IC50 of 0.3 nM.

For the compound `COCC(=O)NCCc1cccc(-c2cc(NCCc3ccc(C(F)(F)F)cc3F)nc(OC)n2)c1` [Example 64, N-[2-(3-{6-[2-(2-Fluoro-4-trifluoromethyl-phenyl)-ethylamino]-2-methoxy-pyrimidin-4-yl}-phenyl)-ethyl]-2-methoxy-acetamide], the half-inhibitory concentration (IC50) amounted to 56 nM.

In the case of `COc1nc(NCCc2ccc(C(F)(F)F)cc2F)cc(-c2cccc(CCNC(C)=O)c2)n1` [Example 65, N-[2-(3-{6-[2-(2-Fluoro-4-trifluoromethyl-phenyl)-ethylamino]-2-methoxy-pyrimidin-4-yl}-phenyl)-ethyl]-acetamide hydrochloride], it took 37 nM to reach half-maximal inhibition (IC50).

Regarding `COc1nc(NCC(F)(F)c2ccccc2)cc(-c2cccc(C(C)(C)C(=O)O)c2)n1` [Example 67, 2-{3-[6-(2,2-Difluoro-2-phenyl-ethylamino)-2-methoxy-pyrimidin-4-yl]-phenyl}-2-methyl-propionic acid], the IC50 stood at 38 nM.

Turning to `COc1nc(NCCc2ccc(OC(F)(F)F)cc2)cc(-c2ccc(F)c(C(C)(C)C(=O)O)c2)n1` [Example 70, 2-(2-Fluoro-5-{2-methoxy-6-[2-(4-trifluoromethoxy-phenyl)-ethylamino]-pyrimidin-4-yl}-phenyl)-2-methyl-propionic acid], it took 193 nM to reach half-maximal inhibition (IC50).

Regarding `COc1nc(NCc2ccsc2)cc(-c2cccc(C(C)(C)C(=O)O)c2)n1` [Example 71, 2-(3-{2-Methoxy-6-[(thiophen-3-ylmethyl)-amino]-pyrimidin-4-yl}-phenyl)-2-methyl-propionic acid], half-maximal inhibition (IC50) required 393 nM.

As to `COc1nc(NCCc2ccc(Cl)cc2Cl)cc(N2CCCC(C(=O)O)C2)n1` (stereo not drawn) [Example 73, 1-{6-[2-(2,4-Dichloro-phenyl)-ethylamino]-2-methoxy-pyrimidin-4-yl}-piperidine-3-carboxylic acid], the IC50 was determined as 0.8 nM.

For `COc1nc(NCCc2ccc(Cl)cc2Cl)cc(-c2cccc(C3(C(=O)O)CCCC3)c2)n1` [Example 74, 1-(3-{6-[2-(2,4-Dichloro-phenyl)-ethylamino]-2-methoxy-pyrimidin-4-yl}-phenyl)-cyclopentanecarboxylic acid hydrochloride], the IC50 worked out at 0.5 nM.

`COc1nc(NCCc2ccc(Cl)cc2Cl)cc(-c2cccc(C(=O)OCCN3CCN(C)CC3)c2)n1` [Example 76, 3-{6-[2-(2,4-Dichloro-phenyl)-ethylamino]-2-methoxy-pyrimidin-4-yl}-benzoic acid 2-(4-methyl-piperazin-1-yl)-ethyl ester]: half-maximal inhibition (IC50) required 7 nM.

For the compound `CCOC(=O)c1cccc(-c2cc(NCCc3ccc(Cl)cc3Cl)nc(OC)n2)c1` [Example 77, 3-{6-[2-(2,4-Dichloro-phenyl)-ethylamino]-2-methoxy-pyrimidin-4-yl}-benzoic acid ethyl ester], the IC50 is 149 nM.

With `COc1nc(NCCc2ccc(Cl)cc2Cl)cc(-c2cccc(C3(C(=O)O)CCOCC3)c2)n1` [Example 80(a), 4-(3-{6-[2-(2,4-Dichloro-phenyl)-ethylamino]-2-methoxy-pyrimidin-4-yl}-phenyl)-tetrahydro-pyran-4-carboxylic acid], inhibition was half-maximal at 0.05 nM (IC50).

Compound `COc1nc(NCCc2ccc(Cl)cc2Cl)cc(-c2cccc(C3(C(=O)NS(C)(=O)=O)CCOCC3)c2)n1` [Example 80(b), N-[4-(3-{6-[2-(2,4-Dichloro-phenyl)-ethylamino]-2-methoxy-pyrimidin-4-yl}-phenyl)-tetrahydro-pyran-4-carbonyl]-methanesulfonamide] showed an IC50 of less than 1 nM.

In turn, `CCOC(=O)C1(c2cccc(-c3cc(NCCc4ccc(Cl)cc4Cl)nc(OC)n3)c2)CCOCC1` [Example 80(c), 4-(3-{6-[2-(2,4-Dichloro-phenyl)-ethylamino]-2-methoxy-pyrimidin-4-yl}-phenyl)-tetrahydro-pyran-4-carboxylic acid ethyl ester] came in with an IC50 of 223 nM.

For the compound `COc1nc(NCCc2ccc(Cl)cc2Cl)cc(-c2cccc(C(F)(F)C(=O)O)c2)n1` [Example 81(a), (3-{6-[2-(2,4-Dichloro-phenyl)-ethylamino]-2-methoxy-pyrimidin-4-yl}-phenyl)-difluoro-acetic acid], the IC50 was 0.02 nM.

For `CCS(=O)(=O)NC(=O)C(F)(F)c1cccc(-c2cc(NCCc3ccc(Cl)cc3Cl)nc(OC)n2)c1` [Example 81(b), Ethanesulfonic acid [2-(3-{6-[2-(2,4-dichloro-phenyl)-ethylamino]-2-methoxy-pyrimidin-4-yl}-phenyl)-2,2-difluoro-acetyl]-amide], half-maximal inhibition (IC50) was put at 0.1 nM.

`COc1nc(NC2CCc3ccccc32)cc(-c2cccc(C(C)(C)C(=O)O)c2)n1` (stereo not drawn) [Example 83(a), 2-{3-[6-(Indan-1-ylamino)-2-methoxy-pyrimidin-4-yl]-phenyl}-2-methyl-propionic acid] came in with a half-inhibitory concentration (IC50) of 83 nM.

The compound `COc1nc(NCCc2ccc(OC(F)(F)F)cc2)cc(-c2cccc(C3(C(=O)NS(C)(=O)=O)CCOCC3)c2)n1` [Example 84(a), N-[4-(3-{2-Methoxy-6-[2-(4-trifluoromethoxy-phenyl)-ethylamino]-pyrimidin-4-yl}-phenyl)-tetrahydro-pyran-4-carbonyl]-methanesulfonamide] returned an IC50 of 0.7 nM.

As to `COC(=O)C1(c2cccc(-c3cc(NCCc4ccc(OC(F)(F)F)cc4)nc(OC)n3)c2)CCOCC1` [Example 84(b), 4-(3-{2-Methoxy-6-[2-(4-trifluoromethoxy-phenyl)-ethylamino]-pyrimidin-4-yl}-phenyl)-tetrahydro-pyran-4-carboxylic acid methyl ester], the IC50 was found to be 70 nM.

In turn, `COCc1nc(NCCc2ccc(Cl)cc2Cl)cc(-c2cccc(C(C)(C)C(=O)O)c2)n1` [Example 85, 2-(3-{6-[2-(2,4-Dichloro-phenyl)-ethylamino]-2-methoxymethyl-pyrimidin-4-yl}-phenyl)-2-methyl-propionic acid] displayed an IC50 of 2.7 nM.

`CC(C)(C(=O)O)c1cccc(-c2cc(NCCc3ccc(Cl)cc3Cl)nc(CO)n2)c1` [Example 86, 2-(3-{6-[2-(2,4-dichloro-phenyl)-ethylamino]-2-hydroxymethyl-pyrimidin-4-yl}-phenyl)-2-methyl-propionic acid] had an IC50 of 71 nM.

`COc1nc(NCCc2ccc(Cl)cc2Cl)cc(-c2ccc(C(=O)O)s2)n1` [Example 87, 5-{6-[2-(2,4-Dichloro-phenyl)-ethylamino]-2-methoxy-pyrimidin-4-yl}-thiophene-2-carboxylic acid] had an IC50 of 0.16 nM.

Turning to `COc1nc(NCCc2ccc(OC(F)(F)F)cc2)cc(-c2ccc3c(c2)CC(C(=O)O)O3)n1` (stereo not drawn) [Example 88, 5-{2-Methoxy-6-[2-(4-trifluoromethoxy-phenyl)-ethylamino]-pyrimidin-4-yl}-2,3-dihydro-benzofuran-2-carboxylic acid hydrochloride], the IC50 is 3.1 nM.

The compound `COc1nc(NCCc2ccc(Cl)cc2Cl)cc(-c2cccc(C(C)(C)C(=O)OCC(O)CO)c2)n1` (stereo not drawn) [Example 89, 2-(3-{6-[2-(2,4-Dichloro-phenyl)-ethylamino]-2-methoxy-pyrimidin-4-yl}-phenyl)-2-methyl-propionic acid 2,3-dihydroxy-propyl ester] came in with an IC50 of 18 nM.
